By IC50 is commonly meant the concentration needed to halve the response being measured.

The first test concerns the target T1, Syk kinase (Homo sapiens, UniProt P43405).
T1 construct: purchased
In words: Syk kinase inhibition, Caliper LabChip off-chip mobility-shift kinase assay. The following applies: Caliper LabChip assay; read-out: Syk Enzyme IC50. Format: biochemical. In outline:
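Purified Syk pre-incubated 15 min with compound in 100 mM HEPES pH 7.5, 1 mM DTT, 10 mM MgCl2 or MnCl2, 0.002% Brij-35, then 1.5 μM fluorescein peptide and ATP at apparent KM added; 1–1.5 h at room temperature, 4% DMSO, EDTA stop. Microfluidic mobility-shift product/substrate conversion gave % inhibition; IC50 from 12-point series (10–0.00003 μM) by 4-parameter fit.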
Regarding `CC1(Cn2ccc3cc(Nc4cnccn4)nc(NC4CC(F)(F)C4)c3c2=O)COC1` [compound 765], the concentration for half-maximal inhibition (IC50) was determined as 0.052 µM. On the same count and under the same terms, the same measure for `CC(C)(C)Nc1nc(Nc2cc(C3CCCCO3)ncn2)cc2ccn(CCO)c(=O)c12` (stereo not drawn) [compound 626]: 0.756 µM; for `CC(C)(C)Nc1nc(Nc2cc(-c3c[nH]nc3C(F)(F)F)ncn2)cc2ccn(CCO)c(=O)c12` [compound 635, 8-(tert-butylamino)-2-(2-hydroxyethyl)-6-(6-(3-(trifluoromethyl)-1H-pyrazol-4-yl)pyrimidin-4-ylamino)-2,7-naphthyridin-1(2H)-one]: 0.314 µM; for `CC(C)(C)Nc1nc(Nc2cc(C(C)(C)CO)ccn2)cc2ccn(CCO)c(=O)c12` [compound 863]: 0.301 µM.

On to `CC(C)(C)Nc1nc(Nc2cc(C(=O)N3CCCC(CO)C3)ccn2)cc2ccn(CCO)c(=O)c12` (stereo not drawn) [compound 688], for which the IC50 is 0.866 µM. Still for that read-out and setting: the same measure for `CCn1ccc2cc(Nc3nccc(O)n3)nc(N[C@H]3CCC[C@H]3O)c2c1=O` [compound 957]: 0.015 µM; for `C[C@@H](CO)Nc1nc(Nc2cnccn2)cc2ccn(CCN3CCOCC3)c(=O)c12` [compound 996]: 0.158 µM.

For the molecule `Cc1ccnc(Nc2cc3ccn(CCN4CCOCC4)c(=O)c3c(NC(C)(C)C)n2)c1` [compound 997], the IC50 stood at 0.296 µM.

Take `[2H]C([2H])([2H])n1ccc2cc(Nc3cnccn3)nc(N[C@H]3CC[C@H](O)CC3)c2c1=O` [compound 984]: the IC50 was determined as 0.029 µM. Still for that read-out and setting: in the case of `Cn1ccc2cc(Nc3nccc(O)n3)nc(N[C@H]3CC[C@H](O)CC3)c2c1=O` [compound 799] it was 0.029 µM.

The same test, now with this note: read-out: Syk Enzyme IC50.
As to `CCN1CCN(CCc2ccc(Nc3nc(Nc4ccc(C)cn4)cc4cc[nH]c(=O)c34)cc2)CC1` [compound 563], the IC50 was 0.43 µM. `Cc1ccnc(Nc2cc3ccn(C)c(=O)c3c(N[C@H]3CCC[C@H]3O)n2)c1` (racemic) [compound 324]: the IC50 was determined as 0.098 µM.

As to `Cc1ccc(-c2cc3cc[nH]c(=O)c3c(Nc3ccc(C4CN(C)C4)cc3)n2)cn1` [compound 140], the IC50 turned out to be 0.027 µM. On the same count and under the same terms, in the case of `CC(C)Nc1nc(Nc2cnccn2)cc2ccn(CCN3CCOCC3)c(=O)c12` [compound 320] it was 0.2 µM; in that of `Cc1ccnc(Nc2cc3cc[nH]c(=O)c3c(NCCC3CCCN3C)n2)c1` (stereo not drawn) [compound 562], 0.288 µM. Same read-out and setting: the same measure for `C[C@@H](O)CNc1nc(-c2cnc(N)nc2)cc2cc[nH]c(=O)c12` [compound 452]: 0.14 µM; for `Cn1ccc2cc(Nc3cnccn3)nc(NC(C)(C)C)c2c1=O` [compound 466]: 0.12 µM; for `Cn1ccc2cc(Nc3cnccn3)nc(N[C@H]3CC[C@H](O)CC3)c2c1=O` [compound 358]: 0.049 µM.

As for `COc1cncc(-c2cc3cc[nH]c(=O)c3c(Nc3ccc(C4CCN(C(C)C(=O)N(C)C)CC4)c(C)c3)n2)n1` (stereo not drawn) [compound 170], the IC50 is 0.006 µM.

For `Cn1ccc2cc(Nc3cnccn3)nc(Nc3ccc(C(=O)N4CCOCC4)cc3)c2c1=O` [compound 476], the 50% inhibitory concentration (IC50) came out at 0.35 µM. The same measure, in the same setting: the same measure for `Cc1ncc(-c2cc3cc[nH]c(=O)c3c(Nc3ccc(C4CCC(N(C)C)CC4)cc3)n2)cn1` (stereo not drawn) [compound 106]: 0.067 µM; for `COCCC(=O)N1CCC(c2ccc(Nc3nc(-c4cncc(OC)n4)cc4cc[nH]c(=O)c34)cc2)CC1` [compound 26]: 0.072 µM. On the same count and under the same terms, in the case of `Cc1ccc(-c2cc3cc[nH]c(=O)c3c(Nc3ccc(C4CNC4)cc3)n2)cn1` [compound 131] it was 0.111 µM; in that of `CCOCC(=O)N1CCC(c2ccc(Nc3nc(-c4cncc(OC)n4)cc4cc[nH]c(=O)c34)cc2C)CC1` [compound 50], 0.075 µM; in that of `CCN1CCN(Cc2n[nH]c3cc(Nc4nc(-c5ccc(C)nc5)cc5cc[nH]c(=O)c45)ccc23)CC1` [compound 203], 0.049 µM.

For `Cn1ccc2cc(Nc3cnccn3)nc(Nc3ccc(C4CCN(C5COC5)CC4)cc3)c2c1=O` [compound 346], the 50% inhibitory concentration (IC50) turned out to be 0.387 µM.

`O=c1[nH]ccc2cc(Nc3cc(Cl)ccn3)nc(NC3CC3)c12` [compound 481]: the IC50 is 0.122 µM.

The record behind these values is US20110053897A1 (IRM LLC, priority 2009, published 2011).
